According to patent publication US20030147950A1, “Modified release tamsulosin tablets” (priority 2001, published 2003):

Assay: Solubility of tamsulosin HCl in aqueous media
Type: physicochemical
Settings: up to 10 mg
Source text: SGF represents a standard stomach condition. SIF represents a standard intestinal condition. FeSSIF is tailored to better represent the fed state while FaSSIF is tailored to better represent the fasting state. Note that not only are the pH different, but equally important, the osmolarity are also different.

volume of any aqueous media needed to dissolve until 10 mg: not more than 500 ml
Structure (SMILES): CCOc1ccccc1OCCNC(C)Cc1ccc(OC)c(S(N)(=O)=O)c1 (stereo not shown) [tamsulosin HCI, 5-[2-[[2-(2-ethoxyphenoxy)ethyl]amino]propyl]-2-methoxy-benzenesulfonamide]
